From a melting point compilation (Tetko et al.; mined from patent text by program, amines drawn as free bases though some values may be those of a salt)

With O=C1C2=C(CCCC2)C(SSC2C3=C(CCCC3)C(=O)N2c2ccc(Cl)cc2F)N1c1ccc(Cl)cc1F (stereo not drawn) the melting point was 146 to 147 °C.
CCCOc1ccc(-c2ccc3c(c2)C=C(C(=O)O)CCN3C=O)cc1 showed a melting point of 215 to 217 °C.
With Cc1ccc(C(=O)c2noc(CC(=O)O)n2)cc1 the melting point was 140 to 141 °C.
In the case of C=CCOc1cc(C(O)CS(C)(=O)=O)cc(OCC=C)c1NC(C)=O (stereo not drawn), the melting point is reported as 162 °C.
Oc1ccc(C2=CCN(CCCN3CCOCC3)CC2)cc1 showed a melting point of 166 to 168 °C.
In the case of O=CN(O)C(CS(=O)(=O)c1ccc(-c2ccc(C(F)(F)F)cc2)cc1)c1ccc2c(c1)OCO2 (stereo not drawn), the melting point is reported as 160 °C.
Work on CCOC(=O)c1csc(C)c1S(=O)(=O)NC(=O)n1nc(OC)n(C)c1=O yielded a melting point of 176 °C.
COc1ccc(C(=O)Nc2ccc(C(=O)O)cc2)cc1C(C)(C)C gave a melting point of 250 °C.
CCCC(=O)Nc1cc(C(=O)NC2CCN(C(C)CC(C(=O)N(C)C)(c3ccccc3)c3ccccc3)CC2OC)c(OC)cc1Cl (stereo not drawn) gave a melting point of 131 °C.
In the case of Oc1c(CN2CCCC2)cc(Nc2ccnc3cc(C(F)(F)F)ccc23)cc1CN1CCCC1, the melting point is reported as 56 to 58 °C.
CC(C)C[C@H](NC(=O)C=Cc1ccccc1)C(=O)N[C@@H](Cc1ccccc1)C(=O)CSCc1ccco1 gave a melting point of 141 to 143 °C.
Compound CC1CC2C3CCC4=CC(=O)C=CC4(C)C3(F)C(O)CC2(C)C1(O)C(=O)COC(=O)c1cccnc1 (stereo not drawn) has a melting point of 262 to 265 °C.
CNC(=O)c1ccc(N2CCN(Cc3cc(Cc4ccccc4)c4c(c3)NC(=O)C(C)O4)CC2)cc1 (stereo not drawn) showed a melting point of 227 to 231 °C.
For Cc1cccc(NC(=O)NC2N=C(c3ccccc3F)c3ccccc3N(Cc3ncccc3C)C2=O)c1 (racemic), the melting point was 216 to 217 °C.
Compound N#Cc1ccc2nc(CCl)[nH]c2c1 has a melting point of 144 to 146 °C.
With O=C1C=CC(=O)c2cc(C(F)(F)F)ccc21 the melting point was 80 to 85 °C.
Work on CN(CCN(O)C(N)=O)Cc1cccc(Oc2ccc(Cl)cc2)c1 yielded a melting point of 111 to 113 °C.
CC(C)(C)C(=O)Nc1ccncc1C(=NN)c1ccccc1F gave a melting point of 78 to 82 °C.
NC(=O)c1cnn2c1NCC=C2c1cccnc1 gave a melting point of 182 to 184 °C.
For N#Cc1ccc(C=CC(=O)c2ccccc2N)cc1, the melting point was 126 to 128 °C.
In the case of CON(C)C(=O)c1ccc(-c2cc(C(C)(C)C)c(O)c(C(C)(C)C)c2)cc1, the melting point is reported as 176 to 177 °C.
Work on Cc1oc(-c2ccccc2)nc1CCOc1ccc(CC(Nc2ccccc2C(=O)c2ccccc2C(=O)O)C(=O)O)cc1 (stereo not drawn) yielded a melting point of 107 to 110 °C.
With COC(=O)C(C)Oc1ccc(NC(=O)CO)cc1 (stereo not drawn) the melting point was 111 to 113 °C.
COC12CC(C)(c3nnc(-c4cncc(Br)c4)[nH]3)CN(C)C1Cc1c[nH]c3cccc2c13 (stereo not drawn) gave a melting point of 163 to 168 °C.
In the case of COc1cc2c(Nc3ccc(Cl)cc3F)ncnc2cc1OCc1ccccn1, the melting point is reported as 215 to 218 °C.
CCc1cc(Nc2ccc([N+](=O)[O-])cc2)n2nccc2n1 gave a melting point of 158 to 160 °C.
With CC(Cl)(Cl)C(NC(=O)c1cccc(Cl)c1)NC(=NC#N)Nc1ccc(F)nc1 (stereo not drawn) the melting point was 124 to 125 °C.
Clc1cc2nc(-c3ccncc3)[nH]c2cc1Cl gave a melting point of 297 °C.
In the case of O=c1[nH]c2ncc(-c3ccc(-n4ccnc4)cc3)nc2n1CC1CCCCC1, the melting point is reported as 284 to 287 °C.
Compound CCCCc1c(/C=C/C(=O)O)cc(OC)c2ccc(OC)cc12 has a melting point of 174 to 176 °C.
CCOP(=O)(Cc1ccc(Oc2sc(C(N)=O)c3c2-c2c(cnn2CC)CC3)cc1)OCC showed a melting point of 152 to 153 °C.
Work on COC(=O)C1=Cc2cc(Br)ccc2N(CC2(C)OCCO2)CC1 yielded a melting point of 96 to 99 °C.
CCCCN(C(=O)c1cnc(N2CCNC2=O)nc1N)c1cccc(C(F)(F)F)c1 showed a melting point of 234 to 235 °C.
In the case of CN1C(=O)C2C3CCC(C3)C2(c2cccc(Br)c2)C1=O (stereo not drawn), the melting point is reported as 105 to 107 °C.
OCc1cn(-c2ccc(F)c(Br)c2)cn1 showed a melting point of 151 to 152 °C.
CCc1c(-c2cc(C)c(O)c(C)c2)[nH]c2ccccc12 showed a melting point of 107 °C.
N#Cc1cccc2c1ccc1nc(O)c(O)nc12 gave a melting point greater than 300 °C.
Work on O=C(OCc1ccc(C(F)(F)F)cc1)N1CCN(CC2Cn3cc([N+](=O)[O-])nc3O2)CC1 (stereo not drawn) yielded a melting point of 120 to 122 °C.
[N-]=[N+]=NC1CC(n2cc(C=CBr)c(=O)[nH]c2=O)OC1CCl (stereo not drawn) showed a melting point of 124 to 125 °C.
Compound Cc1nc(CS(=O)(=O)c2cccc(Cl)c2Cl)no1 has a melting point of 105 to 107 °C.
CCNc1c(C(=O)OCC)c(C)nc2c1nnn2CC gave a melting point of 60 to 61 °C.
With CC(C#Cc1ccc(-c2cccnc2S)o1)N(O)C(N)=O (stereo not drawn) the melting point was 145 °C.
COc1ccc(S(=O)(=O)Nc2ccccc2NC(=O)c2ccncc2)cc1 gave a melting point of 162 to 163 °C.
In the case of COC(=O)/C=C/c1nc(C(=O)OC)ccc1OC, the melting point is reported as 123 to 126 °C.
With Cc1cc(NC(=O)c2cnn(-c3ccc(Cl)cc3)c2C)ccc1N1CCC(N2CCOCC2)CC1 the melting point was 235 to 245 °C.
Compound CCCCOCCOc1ccc(-c2ccc3c(c2)C=C(C(=O)O)CCN3Cc2ccccc2)cc1 has a melting point of 133 to 138 °C.
Work on COC(=O)Cc1ccc(CNC(=O)C2Cc3ccccc3N2S(=O)(=O)c2ccc(-c3cccc(C(F)(F)F)c3)cc2)cc1 (stereo not drawn) yielded a melting point of 74 °C.
Cc1ccc2c(N)c(Cl)ccc2n1 showed a melting point of 196 to 197 °C.
Compound CCC(CC)(CC(=O)c1ccc(OC)c(OC)c1)C(=O)O has a melting point of 106 to 109 °C.
Work on COc1ccc(C=CC(=O)NCCc2ccc(-c3ccccc3)c(S(N)(=O)=O)c2)c(OC)c1 yielded a melting point of 85 °C.
Compound Cc1cc(-c2cn(-c3cccc(OCCn4ccnc4)c3)c3ncnc(N)c23)cc(C)c1O has a melting point of 100 °C.
Clc1ccc(N2C3CCC2CN(Cc2ccccc2)C3)cc1 showed a melting point of 115 to 117 °C.
Cc1cc(C)c(S(=O)(=O)Oc2nc(Nc3ccc(F)cc3F)c(C(=O)n3ccnc3)cc2F)c(C)c1 showed a melting point of 98 to 101 °C.
O=C1C2=C(CCCC2)C(=O)N1c1ccc(O)cc1F showed a melting point of 132 to 136 °C.
CC12CCC(=O)C([N+](=O)[O-])=C1CCC1C2CCC2(C)C(OC3CC3)CCC12 (stereo not drawn) gave a melting point of 133 to 134 °C.
Work on Cc1nc2ccc3c(c2o1)OC(CO)CO3 (stereo not drawn) yielded a melting point of 120 °C.
With CCCCc1oc2ccccc2c1C(=O)c1ccc(O)cc1 the melting point was 119 °C.
Work on CC(=O)N1CCCC2=C1CC(c1ccccc1)c1cc(Cl)ccc12 (stereo not drawn) yielded a melting point of 167 to 168 °C.
For Cc1cccc(C)c1NC(=O)CN1CCN(CC(O)C2COc3ccccc3O2)CC1 (stereo not drawn), the melting point was 175 to 176 °C.
CCCN1CCc2ccc(C(=O)CCC(=O)N3CCC(c4ccc(Cl)cc4)CC3)cc2CC1 showed a melting point of 151 to 152 °C.
Work on N#Cc1cnn(-c2ccc(Cl)nn2)c1N yielded a melting point of 250 to 252 °C.
CCN1c2ccc(Cl)cc2C=C(C(=O)O)C1C(F)(F)F (stereo not drawn) gave a melting point of 201 to 202 °C.
Cc1oc2ccccc2c1OC(C)(C)C#N gave a melting point of 53 to 55 °C.
For COC(=O)c1cc(NC(=O)C2=C(C)OCCS2)ccc1Cl, the melting point was 115 to 117 °C.
For Cc1cc2ncnn2nc1OCCOCCN1CCN(C(c2ccccc2)c2ccccc2)CC1, the melting point was 71 to 72 °C.
CCN1CCCc2cc(C(=O)c3ccc4c(c3)CCCN4CC)ccc21 showed a melting point of 120 °C.
For CC(=O)C(=Cc1ccc2c(c1)OCO2)C(C)=O, the melting point was 79 to 80 °C.
Compound N[C@@H](CC(=O)c1ccc2oc3ccccc3c2c1)C(=O)O has a melting point of 182 to 187 °C.
Compound Cn1c(C(N)=O)c2n(c1=O)-c1ccc(Cl)cc1C(c1ccccc1Cl)=NC2 has a melting point of 158 to 160 °C.
With CCCCNc1cc(CNc2ccccc2)cc(S(N)(=O)=O)c1Oc1ccccc1 the melting point was 142 to 143 °C.
With COc1cc(CN)nc(SC)n1 the melting point was 35 to 38 °C.
Work on Cn1cc(Sc2ccccc2)c(=O)c(-c2cccc(C(F)(F)F)c2)c1 yielded a melting point of 164 to 165 °C.
Compound NC(=O)C1=NN(c2cccc(COCC(F)(F)C(F)(F)F)c2)C(c2ccccc2F)N1 (stereo not drawn) has a melting point of 151 to 153 °C.
O=c1[nH]c2ncncc2s1 showed a melting point greater than 108 °C.
CSCn1cc(F)c(N=CN(C)C)nc1=O gave a melting point of 132 to 136 °C.
CCOC(=O)c1cc(=O)c(-c2ccc(OCc3ccccc3)c(OCc3ccccc3)c2)co1 gave a melting point of 122 to 125 °C.
In the case of Oc1nc2cc(Br)c3ccccc3c2nc1O, the melting point is reported as greater than 300 °C.
C[C@@H]1C(=O)N(c2ccc(C#N)c(Cl)c2)[C@@H](C)[C@H]1O gave a melting point of 149 to 151 °C.
C=CCNc1nc(NCC(C)(C)C)c2scc(C)c2n1 gave a melting point of 90 to 92 °C.
In the case of CCCn1nc(C(C)C)c(C(=O)OCC)c1Cc1ccc(-c2ccccc2S(=O)(=O)NC(=O)c2ccccc2)cc1, the melting point is reported as 159 to 160 °C.
CCCCCS(=O)(=O)NC(=O)/C(=C/c1ccc(OCCOC)cc1Oc1ncc(Cl)cc1Cl)CC gave a melting point of 118 °C.
In the case of COc1ccc(CC(=O)NCCc2ccc(N)cc2)cc1, the melting point is reported as 112 to 114 °C.
Compound C1CC(C23CSC(SC2)SC3)C1 has a melting point of 112 to 114 °C.
With CC12CCC(=O)C=C1CCC1C2CCC2(C)C(CO)CCC12 (stereo not drawn) the melting point was 151 °C.
For Cc1oc(-c2ccccc2)nc1COc1ccc(CON=C2CC(C(=O)O)c3ccccc32)cc1 (stereo not drawn), the melting point was 148 to 149 °C.
Compound CCCC(c1ccc(C(N)=O)cc1)n1ccnc1 (stereo not drawn) has a melting point of 132 °C.
Compound COC(=O)CC[C@H](NC(=O)c1ccc(I)cc1F)C(=O)OC has a melting point of 94 to 96 °C.
For CCOC(=O)C(C)(C)Oc1ccc(-c2ccc(CCNC(=O)c3ccccc3C)cc2)cc1, the melting point was less than 20 °C.
Work on CCCCC1(CCCC)CS(=O)(=O)c2ccc(N(C)C)cc2[C@H](c2ccc(OCCOCCC(C(=O)O)C(=O)O)cc2)[C@@H]1O yielded a melting point of 120 °C.
Compound COc1cccc(CCN2C(=O)c3cc(Cl)c(Cl)cc3C2(O)c2ccc(F)cc2)c1 (stereo not drawn) has a melting point of 169 °C.
For CN(N)c1nc(=S)[nH]c2[nH]cnc12, the melting point was 245 °C.
Compound C=CC(=O)Oc1ccc(N2C(=O)C(=C(C)C)/C(=C(/C)c3c(C)n(C)c4ccccc34)C2=O)cc1 has a melting point of 172 to 174 °C.
Compound CN(C)C(=O)NCCNCC(O)COc1ccc(OCCOCC2CC2)cc1 (stereo not drawn) has a melting point of 86 °C.
With CN(C)CCCCNC(=O)c1ccc(-c2nnc(CSCCOc3ccccc3)o2)cc1 the melting point was 71 to 78 °C.
COc1ccc(CN2C(=O)C(C)(c3cc(N(S(C)(=O)=O)S(C)(=O)=O)ccc3Cl)c3cc(Cl)ccc32)c(OC)c1 (stereo not drawn) gave a melting point of 159 °C.
Work on NC(=O)Cc1ccc(OCC(O)CNCCCCn2cnc3ccccc32)cc1 (stereo not drawn) yielded a melting point of 119 to 123 °C.
N#Cc1c(N)n[nH]c1N1CCN(Cc2ccccc2)CC1 gave a melting point of 157 to 158 °C.
For CC(=O)SCCC(=O)N1N=C(c2ccc(S(N)(=O)=O)cc2)CC1C(=O)O (stereo not drawn), the melting point was 183 to 185 °C.
